From ChEMBL document CHEMBL3243921, “2-Pyrrolidinylideneureas, a new class of central nervous system agents” (J Med Chem, 1978)
The source made the active and inactive calls.

Columns and labels:
[1] = test system: Mus musculus; assay: Muscle relaxant activity in po dosed mouse assessed as increase in strychnine-induced persistant convulsive threshold; type: functional
[2] = test system: Mus musculus; assay: Hypnotic activity in po dosed mouse assessed as increase in pentylenetetrazol-induced persistent-convulsive threshold; type: functional, organism-based
[3] = test system: Rattus norvegicus; assay: Antianxiety activity in ip dosed rat assessed as effect on increase in punished responses administered qd for 5 days measured every day for 5 days; type: functional
[4] = test system: Mus musculus; assay: Muscle relaxant activity in po dosed mouse assessed as blockade of pentylenetetrazol-induced tonic extensor seizure; type: functional
[5] = test system: Mus musculus; assay: Anticonvulsant activity in po dosed mouse assessed as blockade of supramaximal electroshock-induced […] seizure; type: functional
[6] = test system: Mus musculus; assay: Sedative-hypnotic activity in po dosed mouse assessed as increase in pentylenetetrazol-induced persistent-convulsive threshold; type: functional, organism-based

| SMILES | Activity [1] | Activity [2] | Activity [3] | Activity [4] | Activity [5] | Activity [6] |
| --- | --- | --- | --- | --- | --- | --- |
| O=C(/N=C1\CCCN1Cc1ccccc1)Nc1cccc(Cl)c1 | inactive | inactive | inactive | inactive | inactive | inactive |
| COc1ccc(NC(=O)/N=C2\CCCN2C)cc1 | inactive |  | inactive | inactive | inactive |  |
| CN1CCC/C1=N\C(=O)Nc1cc(C(F)(F)F)cc(C(F)(F)F)c1 |  |  |  |  | Active |  |
| CN1CCC/C1=N\C(=O)Nc1ccccc1C(F)(F)F | Active | Active | Active | Active | Active | Active |
| CN1CCCC/C1=N\C(=O)Nc1ccc(C(F)(F)F)cc1 | inactive | inactive | inactive | inactive | inactive | inactive |
| CN1CCC/C1=N\C(=O)Nc1ccc(C(F)(F)F)cc1 |  |  | inactive |  |  |  |
| O=C1NC(=O)C(c2ccccc2)(c2ccccc2)N1 |  |  |  |  | Active |  |
| Cc1cc(C)c(NC(=O)/N=C2\CCCN2C)c(C)c1 | Active |  |  | Active |  |  |
| CN1CCCCC/C1=N\C(=O)Nc1ccccc1 | inactive | inactive | inactive | inactive | inactive | inactive |
| O=C(/N=C1\CCCN1)NC12CC3CC(CC(C3)C1)C2 |  |  | inactive |  |  |  |
| CCOC(=O)c1ccc(NC(=O)/N=C2\CCCN2C)cc1 | inactive |  | inactive | inactive | inactive |  |
| CN1CCC/C1=N\C(=O)Nc1ccc(C(C)(C)C)cc1 | inactive |  | inactive | inactive | inactive |  |
| CN1CC(c2ccccc2)C/C1=N\C(=O)Nc1cccc(Cl)c1 (stereo unspecified) | inactive | inactive | inactive | inactive | inactive | inactive |
| CN1CC(C)(C)C/C1=N\C(=O)Nc1cccc(Cl)c1 | inactive | inactive | inactive | inactive | inactive | inactive |
| O=C(/N=C1\CCCN1)Nc1ccccc1 | Active |  |  | Active |  |  |
| CN1CC(C)(C)C/C1=N\C(=O)Nc1c(Cl)cccc1Cl | inactive | inactive | inactive | inactive | inactive | inactive |
| CCOc1ccc(NC(=O)/N=C2\CCCN2C)cc1 | inactive |  | inactive | inactive | inactive |  |
| CN1CC(c2ccccc2)C/C1=N\C(=O)Nc1ccccc1 (stereo unspecified) | inactive | inactive | inactive | inactive | inactive | inactive |
| O=C(/N=C1\CCCN1Cc1ccccc1)Nc1c(Cl)cccc1Cl | inactive | inactive | inactive | inactive | inactive | inactive |
| CN1CCCCC/C1=N\C(=O)Nc1c(Cl)cccc1Cl | inactive | inactive | inactive | inactive | inactive | inactive |
| O=C(/N=C1\CCCN1)NC1CCCCC1 |  |  | inactive |  |  |  |
| Cc1cccc(C)c1NC(=O)/N=C1\CCCCCN1 | inactive | inactive | inactive | inactive | inactive | inactive |
| Cc1cccc(C)c1NC(=O)/N=C1\CC(c2ccccc2)CN1C (stereo unspecified) | inactive | inactive | inactive | inactive | inactive | inactive |
| CC1/C(=N\C(=O)Nc2ccccc2)N(C)CC1c1ccccc1 (stereo unspecified) | inactive | inactive | inactive | inactive | inactive | inactive |
| CC(C)c1ccccc1NC(=O)/N=C1\CCCN1C | Active | Active | Active | Active | Active | Active |
| O=C(/N=C1\CCCN1Cc1ccccc1)Nc1cccc(C(F)(F)F)c1 | inactive | inactive | inactive | inactive | inactive | inactive |

| SMILES | Activity [1] | Activity [2] | Activity [3] | Activity [4] | Activity [5] | Activity [6] |
| --- | --- | --- | --- | --- | --- | --- |
| O=C(/N=C1\CCCCCN1)Nc1c(Cl)cccc1Cl | inactive | inactive | inactive | inactive | inactive | inactive |
| CN1CCC/C1=N\C(=O)Nc1ccc(Cl)cc1 | inactive |  | inactive | inactive | inactive |  |
| Cc1cccc(C)c1NC(=O)/N=C1\CCC(C)N1C (stereo unspecified) | inactive | inactive | inactive | inactive | inactive | inactive |
| CN1CCC/C1=N\C(=S)Nc1ccc([N+](=O)[O-])cc1 | inactive | inactive | inactive | inactive | inactive | inactive |
| CCCCN1CCC/C1=N\C(=O)Nc1cccc(Cl)c1 | inactive | inactive | inactive | inactive | inactive | inactive |
| CN1CC(C)(C)C/C1=N\C(=O)Nc1ccccc1 | inactive | inactive | inactive | inactive | inactive | inactive |
| CN1CCC/C1=N\C(=O)Nc1ccc(Br)cc1 | inactive |  | inactive | inactive | inactive |  |
| CN1CCC/C1=N\C(=O)Nc1ccc(O)cc1 | inactive |  | inactive | inactive | inactive |  |
| CN1CCC/C1=N\C(=O)Nc1ccc(OCc2ccccc2)cc1 | inactive |  | inactive | inactive | inactive |  |
| Cc1cccc(C)c1NC(=O)/N=C1\CCCN1Cc1ccccc1 | inactive | inactive | inactive | inactive | inactive | inactive |
| O=C(/N=C1\CCCCCN1)Nc1ccccc1 | inactive | inactive | inactive | inactive | inactive | inactive |
| CN1CCC/C1=N\C(=O)Nc1ccc(F)cc1 | inactive |  | inactive | inactive | inactive |  |
| Cc1ccccc1NC(=O)/N=C1\CCCN1C | Active | Active | Active | Active | Active | Active |
| Cc1cc(N(C)C)cc(C)c1NC(=O)/N=C1\CCCN1C | Active |  |  | Active |  |  |
| CN1CCC/C1=N\C(=O)Nc1c(Br)cc(Br)cc1Br | Active |  |  | Active |  |  |
| CN1CCC/C1=N\C(=O)Nc1ccc(S(C)(=O)=O)cc1 | inactive |  | inactive | inactive | inactive |  |
| Cc1ccc(Cl)c(C)c1NC(=O)/N=C1\CCCN1C | Active |  |  | Active |  |  |
| CN1CC(c2ccccc2)C/C1=N\C(=O)Nc1c(Cl)cccc1Cl (stereo unspecified) | inactive | inactive | inactive | inactive | inactive | inactive |
| CN1CCC/C1=N\C(=O)Nc1c(Cl)cc(Cl)cc1Cl | Active |  |  | Active |  |  |
| Cc1cccc(C)c1NC(=O)/N=C1\CC(C)(C)CN1C | inactive | inactive | inactive | inactive | inactive | inactive |
| Cc1ccc(NC(=O)/N=C2\CCCN2C)cc1 | inactive |  | inactive | inactive | inactive |  |
| CN1CCC/C1=N\C(=O)Nc1cccc([N+](=O)[O-])c1 |  |  | inactive |  |  |  |
| CCCCCCCCCCCCCCCCCCNC(=O)/N=C1\CCCN1 |  |  | inactive |  |  |  |
| CN1CCC/C1=N\C(=O)Nc1ccc(N(C)C)cc1 | inactive |  | inactive | inactive | inactive |  |
| CSc1ccc(NC(=O)/N=C2\CCCN2C)cc1 | inactive |  | inactive | inactive | inactive |  |
